The values that follow come from patent US10912761B2, “Methods and compositions involving RAD51 inhibitors” (The University of Chicago, priority 2012, dated 2021).

Entries after “also recorded” stand apart in the source; their conditions may differ.

Data set [1] is described as follows: Glutathione stability experiments (HPLC). The data set is classed as physicochemical. The following applies: L-glutathione 5 mol equiv, DMSO, 37° C., hourly HPLC; up to 24 hours. How it is done: FIG. 1. Reaction of RI-1, RI-2, and 9b with glutathione. Glutathione is a tripeptide that contains a nucleophilic sulfhydryl group. Glutathione may react irreversibly with a Michael acceptor compound containing a suitable leaving group at the 4-position.
Compound (10 mg) and L-glutathione (5 mol equiv) were placed in a round-bottomed flask under argon and dissolved in DMSO (1 mL). The reaction was heated to 37° C. and stirred. Aliquots of the reaction mixture were removed every hour, including one at t=0 min, and analyzed by HPLC. Ratio of substrate and glutathione adduct was recorded and the expected glutathione adduct was then identified using mass spectrometry

Another data set has as its system immortalized human cells. The data set is described as follows: MMP-1-60 toxicity to immortalized human cells with or without pre-incubation in media. Conditions: 4 hours of pre-incubation with tissue culture media vs. no pre-incubation. Type of data set: cell-based. As to the method: FIGS. 6A-6B: A. ssDNA binding activity of RAD51 in response to RAD51 antagonists. […] B. MMP-1-60 toxicity to immortalized human cells.
HEK293 cells were plated into 96-well tissue culture plates at a density of 300 cells per well in the presence or absence of 50 nM MMC (Ben Venue Laboratories) for 24 hours at 37° C., 5% CO2. Media was subsequently replaced with fresh media containing 0.5% DMSO plus a candidate compound for an additional 24 hours. Compounds were then removed, and cultures were allowed to grow to a 50-70% confluence. Average survival from at least three replicates was measured using CellGlo reagent (Promega) or via a previously described sulforhodamine B method (Jayathilaka et al., 2008).

Data set [2] concerns the target T1, human RAD51 protein (Homo sapiens, UniProt Q06609).
T1 sequence (Q06609 1-339): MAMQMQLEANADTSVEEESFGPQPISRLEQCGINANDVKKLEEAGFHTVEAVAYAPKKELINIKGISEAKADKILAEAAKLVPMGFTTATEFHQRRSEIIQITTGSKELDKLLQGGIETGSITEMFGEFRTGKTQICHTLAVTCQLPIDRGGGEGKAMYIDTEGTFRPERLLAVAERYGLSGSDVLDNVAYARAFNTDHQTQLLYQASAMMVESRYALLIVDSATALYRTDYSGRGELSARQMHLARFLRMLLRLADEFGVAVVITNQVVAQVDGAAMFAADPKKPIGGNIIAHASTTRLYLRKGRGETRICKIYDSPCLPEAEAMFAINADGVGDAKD
As to the kind of experiment: FP-based DNA binding assay (RAD51 binding to fluorescently labeled ssDNA). The data set is classed as biochemical. On the set-up: made in house. Conditions: for time dependence of inhibitory activity on the DNA binding activity of RAD51: compound added after the protein has been released from the beads (FIG. 2B). As to the method: The synthesized compounds were tested for biological activity in a two-stage manner. They were first evaluated for their ability to inhibit the binding of human RAD51 protein to ssDNA. This primary assay utilizes a fluorescence polarization (FP) based method that involves incubation of purified RAD51 protein with oligonucleotides, which are end-labeled with a fluorescent tag. The binding of RAD51 to this substrate ssDNA is quantified as a function of polarization of light emitted by the fluorescent tag. Chemical analogs were then tested further using secondary cell-based assays. Since cell lethality from RI-1 is thought to be a function of cellular RAD51 inhibition for RI-1, LD50 values were used as a surrogate measurement of in vivo activity against RAD51 in cells. This cell-based assay was also simultaneously utilized to evaluate for compound-induced sensitization of cells to the cross-linking chemotherapeutic drug MMC, thereby confirming that toxic effects are secondary to HR inhibition.
Human RAD51 protein was prepared as previously described (Budke et al., 2012). RAD51 was incubated with 100 nM (nucleotide concentration) of a 45-mer oligo-dT 5′ Alexa 488 end-labeled substrate. Binding was measured as a function of fluorescence polarization (FP) of the Alexa 488 tag. 50 μl reactions were performed in 20 mM HEPES, pH 7.5, 2 mM ATP, 10 mM MgCl2, 30 mM NaCl, 2% glycerol, 250 μM BSA, and 4% DMSO. Black polystyrene flat-bottom 384-well reaction plates were read using a Tecan Infinite F200 Pro plate reader, equipped with 485(20)/535(25) FP filters. For experiments used to determine IC50 values, RAD51 concentrations (typically 190-290 nM) were selected to generate FP signal of 50-80% maximum in the absence of any inhibitory compound. Reported IC50 values represent the mean result of at least three replicate wells, and reported errors connote standard deviation.

The target in data set [3] is T1, human RAD51 protein. As to the kind of experiment: DNA binding competition assay: bead-immobilized RAD51 treated with compound, washed, cleaved, tested by FP (reversible vs. irreversible inhibition). Conditions: washed extensively, protein cleaved from beads (FIG. 2C).
Method: Reversible vs. irreversible inhibition of RAD51 by compound was tested by incubating compounds with RAD51 while still attached to beads and prior to washing. […] Reversible vs. irreversible inhibition of RAD51. Biotinylated RAD51 was immobilized on streptavidin polyacrylamide beads. The RAD51-coated beads were incubated with compound and subsequently washed extensively to remove any compound that was not covalently attached. The treated protein was subsequently cleaved from the beads and tested for DNA binding activity using our standard FP-based assay.
Tagged RAD51 was immobilized on streptavidin-conjugated polyacrylamide beads (Ultralink, Pierce) and incubated for 30 min at 37° C. with candidate compounds in 20 mM HEPES, pH 7.5, 30 mM NaCl, 2% glycerol, 4% DMSO. The polyacrylamide beads were then washed twice with ice-cold wash buffer (20 mM Tris-HCl, pH 8.0, 300 mM NaCl) containing 4% DMSO and then once with ice-cold wash buffer without DMSO. RAD51 protein was subsequently eluted from beads with TEV protease (gift from Phoebe Rice) and analyzed for DNA binding activity using the above FP-based DNA binding assay.
The subject of data set [4] is HR repair in HEK293 cells (DR-GFP reporter). The data set is described as follows: Quantification of HR efficiency in DR-GFP reporter cells. The following applies: 24 hours. Type of data set: cell-based, human. As to the method:
(§1) FIG. 3. Relative DNA repair efficiencies. […] Reporter-containing HEK293 cells were electroporated with an I-SceI endonuclease-expressing plasmid, incubated with compounds as indicated for 24 hours, and subjected to FACS analysis 24 hours thereafter. […] The reporter construct that measures HR repair consists of two non-functional copies of green fluorescence protein (GFP), one of which is interrupted by an I-SceI endonuclease site. Induction of a DNA break at the I-SceI site can lead to repair by homologous gene conversion that generates a functional copy of GFP (Pierce et al., 1999). A second parallel assay makes use of cells that contain a different reporter that measures single-strand annealing (SSA), which is an alternative method of re-ligating DNA when HR cannot be completed. SSA efficiency is known to be elevated in situations where RAD51 function has been disrupted (Mansour et al., 2008, Stark et al., 2004, and Bennardo et al., 2008). […] HEK293 cells stably transfected with the DR-GFP or SA-GFP reporters were provided by Jeremy Stark (Bennardo et al., 2008). 0.5-1.0×10^7 cells at 80% confluence were electroporated with 30-60 μg pCβASce (or pCAGGS) in 4 mm cuvettes, using the following settings: 240-350 V, 975 μF. […] Compounds were removed and cells were incubated for an additional 24 hours in normal media, following which they were analyzed with a Becton-Dickinson FACScan. […]

For data set [5], the system named is SSA in HEK293 cells (SA-GFP reporter). As to the kind of experiment: Quantification of SSA efficiency in SA-GFP reporter cells. The data set is classed as cell-based, human. Conditions: 24 hours. As to the method: as §1
Another data set deals with HEK293 cells. As to the kind of experiment: Cell toxicity assay: sensitization to MMC. The data set is classed as cell-based, human. The following applies: 24 hours MMC, then 24 hours compound, 5-7 days drug-free.

As usually defined, the IC50 is the concentration that gives 50% inhibition.

As for `O=C1C(I)=C(N2CCOCC2)C(=O)N1c1ccc(Cl)c(Cl)c1` [Compound 9b, 1-(3,4-Dichlorophenyl)-3-iodo-4-morpholino-1H-pyrrole-2,5-dione], the reaction with glutathione result in data set [1] is on record as “no detectable compound at the first time point measured”.
On to `COc1ccc(C2=C(SCCN(C)C)C(=O)N(c3ccc(Cl)c(Cl)c3)C2=O)cc1` [MMP-1-60, 1-(3,4-dichlorophenyl)-3-((2-(dimethylamino)ethyl)thio)-4-(4-methoxyphenyl)-1H-pyrrole-2,5-dione], for which the “cell toxicity with vs. without pre-incubation (stability)” value in the data set on immortalized human cells is “comparable cell toxicity”. Also, at human RAD51 protein [2] (FIG. 6A), the “RAD51 inhibitory activity (ssDNA binding), relative” value is “intermediate to RI-1 and RI-2”.
Regarding `O=C1C(Cl)=C(N2CCOCC2)C(=O)N1c1ccc(Cl)c(Cl)c1` [RI-1, 1-(3,4-Dichlorophenyl)-3-chloro-4-morpholino-1H-pyrrole-2,5-dione, reference compound], the reaction with glutathione result in data set [1] was “reduced glutathione reactivity”. For the same molecule, the “DNA binding activity of RAD51 treated with compound prior to washing” value at human RAD51 protein [3] (10 μM compound) was “significantly inactivated”. In addition, in data set [4] (20 μM), the HR repair efficiency entry was “inhibition of HR”. For the same molecule, the SSA efficiency entry in data set [5] (20 μM) was “stimulation of SSA”. In addition, the “time dependence of inhibitory activity on the DNA binding activity of RAD51” value on human RAD51 protein [2] was “time-dependent”.
`COc1ccc(C2=C(N3CCOCC3)C(=O)N(c3ccc(Cl)c(Cl)c3)C2=O)cc1` [RI-2, 1-(3,4-Dichloro-phenyl)-3-(4-methoxy-phenyl)-4-morpholin-4-yl-pyrrole-2,5-dione]: the reaction with glutathione result in data set [1] was “no reactivity toward glutathione”. Further, the “DNA binding activity of RAD51 treated with compound prior to washing” value on human RAD51 protein [3] (concentrations up to 240 μM) was “no measurable loss of DNA binding activity”. The HR repair efficiency result in data set [4] (60 μM) is “very similar effects; also recorded: inhibition of HR”. In data set [5] (60 μM), the SSA efficiency result was “very similar effects; also recorded: stimulation of SSA”. In addition, the 50% inhibitory concentration (IC50) on human RAD51 protein [2] (RAD51 binding to ssDNA, FP, read-out: IC50 in the standard DNA binding assay) was determined as 44.2 µM. Further, the “time dependence of inhibitory activity on the DNA binding activity of RAD51” value at human RAD51 protein [2] was “no time-dependent increase”. The “sensitization to cross-linking chemotherapy (MMC)” value with HEK293 cells is “sensitizes human cells to cross-linking chemotherapy”.
